Results taken from patent US20240009203A1, “COMPOSITIONS AND METHODS FOR TREATING ALZHEIMER'S DISEASE” (Cedars-Sinai Medical Center, priority 2020, published 2024).

How the values were obtained:
[1] = system: BDNF pathway; assay: Ingenuity pathway analysis of proteome data, BDNF pathway; set-up: species or system mice; settings: FIG. 19B, p<0.0001
Excerpt: (§1) FIGS. 19A, 19B, and 20 include global proteome data from a mass spectrometry analysis. […] Some of these proteins, such as HPX, may be involved in anti-oxidative-stress or anti-inflammatory pathways.

[2] = system: VGF; assay: VGF expression in hippocampus; format: in vivo; settings: dentate gyrus and other hippocampal regions, 18-mo-old AD-Tg mice, single ETP69 injection (FIG. 22)
Procedure: (§2) Expression of VGF, BDNF, and NCAM was analyzed in 18-month AD+ mice following a single ETP69 injection. Representative images are depicted in FIG. 22.

[3] = system: AD+ mice; assay: Visual stimuli X-maze, contrast mode; format: in vivo; settings: 18 mo, i.p. 10 mg/kg, contrast mode (FIG. 10E-10F)
Procedure: (§3) The effects of single and repeated ETP69 injections in mice were tested. The experimental timeline is depicted in FIG. 8. Three parallel injection conditions were tested: a single ETP69 condition, a boosted ETP69 injection, and repeated ETP69 injections, as depicted in Table 2. The single injection mice received one injection of ETP69 or DMSO at Day 0. The mice that received a boosted injection received one injection of ETP69 or DMSO at day 0 and one injection at day 9. The mice that received repeated injections received 11 injections of ETP69 or DMSO at day 0 or day 9. Both wildtype and AD model (APP/PS1-transgenic) mice were tested.
(§4) FIG. 10A-10D depicts the results of the mice on the color mode of the visual stimuli X-maze test. […] FIG. 10E-10F depict the results of the contrast mode of the visual stimuli X-maze test.

[4] = system: proteins related to learning, cognition, conditioning, anxiety; assay: Ingenuity analysis of behavioral pathways; set-up: species or system mice; settings: FIG. 20
Excerpt: as §1

[5] = system: dendritic spines; assay: Golgi-Cox staining of brain sections (dendritic spines); format: in vivo, mice
Procedure: (§5) Wildtype and ADtg mice (18 months, males and females) were treated with ETP69 or vehicle (DMSO-saline) to test the effects of ETP69 in improving cognition in a mouse model of Alzheimer's disease. On day 1, mice were treated with an injection of 10 mg/kg ETP69 of vehicle. Then starting on day 2, mice were tested in various behavioral tests, including Y-maze, visual test alternation, Open Field-Barnes Maze, and/or fear conditioning. On either day 4 or day 19 mice were sacrificed, and tissues analyzed for histone trimethylation levels, A-beta levels, immunohistochemistry (GFAP, IGF1), Spine count (Golgi-Cox staining), —Neurotrophic support and synaptic markers.
[…] which bind to proteins in the neuron are randomly formed during the impregnation, then transformed to black mercuric sulfide deposits upon alkali treatment (Ramón-Moliner, 1970; Špaček, 1989; Rosoklija et al., 2014). The architecture of the impregnated neuron, including cell somas, axons, dendrites and spines, could be easily visualized. It is expected that qualitative observations by these measures of brains from ADtg mice treated with ETP69 will show higher spine density as compared to brains of DMSO-injected control ADtg mice. FIG. 7A-7D include Golgi-Cox stain images of whole neurons and their dendritic projections.
The right brain hemispheres of 18 month old mice were stained with the Golgi-Cox method to detect the cytoarchitecture and morphology of neurons. FIG. 13A depicts representative images of the cingulate cortex of mice administered DMSO or ETP69 and FIG. 13B depicts a representative image of the hippocampal area of a mouse treated with ETP69.

[6] = system: ADtg mice; assay: Open Field-Barnes Maze test; format: in vivo
Procedure: as §5
The results of the Open Field-Barnes Maze test indicate hippocampal-based spatial learning and memory.
as §3
The results of the Open Field Barnes Maze test indicate hippocampal-based spatial memory and learned. […] A comparison of results of single (S), boost (B) and repeated (R) injections is depicted in FIG. 11D-11H.
(§6) 18 month old wildtype and AD+ mice were administered an oral dose of 50 mg/kg ETP69 or oraB once a day for 4 weeks. The experimental protocol is depicted in FIG. 23.
On days 4-7 mice were tested on the training phase of the Barnes Maze (FIG. 27A). On day 10, mice were tested on the retention phase. On days 11-12, mice were tested on the reversal phase. Results are depicted in FIG. 27B-27E.

[7] = system: ADtg mice; assay: Visual X maze (visual stimuli X-maze), color mode; format: in vivo
Procedure: as §5
The results of the Koronyo's Visual X Maze (color) indicate visual-cognitive memory and learning.
as §3, §4
(§7) The effects of ETP69 injections in 14 month old mice was tested. Wildtype mice were divided into 2 treatment groups, mice that received an ETP69 injection (n=10) and mice that received a DMSO injection (N=10). AD+ mice were divided into 2 treatment groups, mice that received an ETP69 injection (n=8) and mice that received a DMSO injection (N=7). The experimental protocol is depicted in FIG. 15.
Mice were tested for visual-cognitive memory and learning using a visual X maze.
as §6
On day 1, the mice were tested in the open field test as depicted in FIG. 24A. Rearing and total locomotor activity were measured in mice administered oraB and ETP69 (FIG. 24B-24G). On day 2, mice were tested in the color visual-stimuli X-maze. […] On day 3, mice were tested in the contrast visual-stimuli X-maze. Results are depicted in FIG. 26A-26E.

[8] = system: cerebral macrophages, microglia, and astrocytes; assay: Effects on cerebral inflammatory cells (FIG. 21A-21L); format: in vivo; settings: AD+ mice (FIG. 21A-21L)
Excerpt: These phagocytic inflammatory cells may be involved in immune activation and clearing toxic Aβ. Restoring a young phenotype may explain reduced neuroinflammation and Aβ plaques in the ETP69 treated AD+ mice.

[9] = system: global proteome; assay: Global proteome mass spectrometry analysis of brains; format: in vivo, mice
Excerpt: Overall, the experiments in these examples from multiple cohorts of 14- and 18-month-old murine models of AD (AD+ mice) and age/gender-matched control mice provide support that by inhibiting the enzyme SUV39H1 that regulates H3K9me3 via ETP69 compound (AKA NT1721), the chromatin state of subjects may be altered, and memory and synaptic plasticity may be restored in aging and AD brains. The therapeutic usefulness of ETP69 has been shown in the experiments described in these examples, in both aged WT mice and the well-established transgenic mouse models of AD (APPSWE/PS1ΔE9, AD+ mice), following a single (S), a boost (B), or once a week repeated (R) i.p. injections of ETP69. […] Additionally, in investigation of whole proteome profiles by mass spectrometry identified some mechanisms of action for ETP69 in the aged WT and AD+ mice.
as §1

[10] = system: H3K9me3; assay: H3K9me3 brain staining and quantification; format: in vivo, mice
Excerpt: (§8) 18 month old AD+ mice brains were stained for neuronal H3K9me3 and DAPI. FIG. 14A is a representative image of the H3K9me3 signal across cortical layers. FIG. 14B is a representative image comparing ETP69 treated and DMSO control brains. […] FIG. 14D depicts immunohistochemistry of 6E10+ amyloid-beta plaques and GFAP+ astrogliosis in coronal sections of AD+ mice treated with ETP69 or DMSO.

[11] = system: ADtg mice; assay: Y-maze test; format: in vivo
[12] = humans; cited from earlier work
[13] = system: 6E10+ amyloid-beta plaques; assay: Immunohistochemistry of 6E10+ amyloid-beta plaques; format: in vivo, mice
Excerpt: as §8, with “FIG.” for “18 month old AD+ mice brains were stained for neuronal H3K9me3 and DAPI. FIG.”

[14] = system: Iba1; assay: Iba1 immunohistochemistry; format: in vivo; settings: 14 month old AD+ mice, compared to untreated AD+ mice (FIG. 18E)
[15] = system: ADtg mice; assay: Fear conditioning test; format: in vivo
Procedure: as §5
The results of the fear conditioning test indicate spatial memory.
as §3, §7
The fear conditioning test was used to indicate spatial memory.

[16] = system: GFAP; assay: GFAP+ astrogliosis (immunohistochemistry, western blot); format: in vivo, mice
Excerpt: as §8

[17] = system: BDNF; assay: BDNF expression in hippocampus; format: in vivo; settings: dentate gyrus and other hippocampal regions, 18-mo-old AD-Tg mice, single ETP69 injection (FIG. 22)
Procedure: as §2

[18] = cingulate cortex and hippocampus, 18 month old mice (FIG. 13C-13D)
[19] = ADtg mice, 18 months, injection of 10 mg/kg, compared with vehicle treated mice (FIG. 5A-5C)
[20] = AD+ mice, 18 mo, i.p. 10 mg/kg, color mode (FIG. 10A-10D)
[21] = ADtg mice, 18 months, injection of 10 mg/kg, compared with vehicle treated mice (FIG. 4A-4J)

For `CN1C(=O)[C@@]23C[C@](C)(C#N)[C@H](c4ccc5c(c4)OCO5)N2C(=O)[C@]1(C)SS3` (racemic) [ETP69, Rac-(3S,6S,7S,8aS)-6-(benzo[d][1,3]dioxol-5-yl)-2,3,7-trimethyl-1,4-dioxohexahydro-6H-3,8a-epidithiopyrrolo[1,2-a]pyrazine-7-carbonitrile], the “BDNF pathway activation Z-score” value [1] was 2.359, the VGF expression [2] was “Marked increases” and the percent alternation [3] was “significant increase”. For the same compound, the “proteins related to conditioning, anxiety, and other behaviors” value [4] was “inhibition”, the “proteins related to learning and cognition” value [4] was “activation” and the “association of spine preservation with errors in the Barnes maze test” value ([5]; 18 month old mice, correlation (FIG. 13G)) was “reduced errors”. The “ratio of thin spines to all spines” value ([5]; AD+ mice, 18 month, compared to AD+ mice administered DMSO alone (FIG. 13E-13F)) was “significant increase”, the dendritic spines [5, 18] was “increase” and the “thin (immature) spines” value [5, 18] was “increase”. For the same compound, the memory retention ([6]; AD+ mice, 18 mo, i.p. 10 mg/kg, compared to AD+ mice treated with DMSO (FIG. 11A-11C)) was “improvement”, the incorrect entries [6, 19] was “fewer” and the latency [6, 19] was “reduced”. The memory retention [6, 19] was “improvement”, the “reversal of cognitive deficits” value ([6]; old AD-model mice (18 month), oral 50 mg/kg once a day for 4 weeks, Barnes Maze (FIG. 27B-27E)) was “significant reversal” and the alternation ([7]; 14 month old AD+ mice, ETP69 injection, compared to untreated mice, mode not stated (FIG. 16A-16D)) was “improvements”. For the same compound, the bidirectional movement [7, 20] was “significant increase”, the percent alternation [7, 20] was “significant increase” and the color bidirectional [7, 21] was “improvements”. The percent spontaneous alternation [7, 21] was “improvements”, the reversing cognitive dysfunction ([7]; old mice (18 month), oral 50 mg/kg in oraB once a day for 4 weeks, color visual-stimuli X-maze (FIG. 25A-25E)) was “beneficial effects” and the “effects on cerebral macrophages, microglia, and astrocytes” value [8] was “dramatic effects”. For the same compound, the “proteins upregulated, AD+ mice treated with ETP69 compared to untreated AD+ mice” value ([9]; brains, FIG. 19A) was “VAV3, CORO2A and HPX”, the “most up-regulated proteins following ETP69 administration” value ([9]; whole proteome profiles by mass spectrometry, aged WT and AD+ mice) was “VGF and HP/HPX” and the H3K9me3 ([10]; 14 month old AD+ mice, compared to untreated AD+ mice (FIG. 18B)) was “decrease”. For the same compound, the H3K9me3 staining ([10]; 18 month old AD+ mice, cortex and hippocampus (FIG. 14C)) was “significant decrease”, the percent alternation ([11]; AD+ mice, 18 mo, i.p. 10 mg/kg, vs AD+ DMSO (FIG. 9B)) was “significant increase” and the percent spontaneous alternation ([11]; ADtg mice, 18 months, injection of 10 mg/kg ETP69, compared with vehicle treated mice (FIG. 3A-3B)) was “improvement”. The “number of total entries” value ([11]; both wildtype and AD+ mice, 18 mo, i.p. 10 mg/kg in DMSO, single/boost/repeated (FIG. 9A), indicates decreased locomotor activity) was “decreased”, the safety and tolerability [12] was “generally safe and tolerable” and the 6E10 ([13]; 14 month old AD+ mice, compared to untreated AD+ mice (FIG. 18C)) was “decrease”. The “decrease in the amount of 6E10 amyloid plaques” value ([13]; brains of 18 month old AD+ mice (FIG. 14E)) was 42%, the Iba1 [14] was “decrease” and the freezing time ([15]; 14 month old AD+ mice, ETP69 injection (FIG. 17A-17B)) was “increase”. The freezing time ([15]; AD+ mice, 18 mo, i.p. 10 mg/kg (FIG. 12)) was “increased”, the freezing time ([15]; ADtg mice, 18 months, injection of 10 mg/kg (FIG. 6A-6B)) was “increased” and the GFAP ([16]; 14 month old AD+ mice, compared to untreated AD+ mice (FIG. 18D)) was “decrease”. The “decrease of GFAP irradiance” value ([16]; 18 month old AD+ mice, cingulate cortex (FIG. 14F)) was 58% and the BDNF expression [17] was “Marked increases”.
